# Reference: ChEMBL document CHEMBL1146627, “Synthesis and structure-activity relationships of 1-arylmethyl-3-(1-methyl-2-amino)ethyl-5-aryl-6-methyluracils as antagonists of the human GnRH Receptor” (Bioorg Med Chem Lett, 2003)
# Target: T1, Gonadotropin-releasing hormone receptor (Homo sapiens, UniProt P30968)
# T1 sequence (P30968 whole entry): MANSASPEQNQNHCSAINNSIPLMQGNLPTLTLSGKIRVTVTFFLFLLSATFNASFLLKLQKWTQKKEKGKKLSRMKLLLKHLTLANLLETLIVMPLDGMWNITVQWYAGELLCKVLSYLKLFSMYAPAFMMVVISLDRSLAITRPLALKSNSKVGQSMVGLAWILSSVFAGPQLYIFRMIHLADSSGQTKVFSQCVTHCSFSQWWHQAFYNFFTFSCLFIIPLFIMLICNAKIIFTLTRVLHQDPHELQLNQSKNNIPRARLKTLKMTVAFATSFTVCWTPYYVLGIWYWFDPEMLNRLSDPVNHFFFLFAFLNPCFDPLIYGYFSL
# Assay: Binding affinity towards human gonadotropin-releasing hormone receptor expressed in HEK293 cells
# Format: cell-based
row,SMILES,Ki
1,COc1cccc(-c2c(C)n(Cc3c(F)cccc3F)c(=O)n([C@@H](C)CN(C)CCc3ccccn3)c2=O)c1,1800 nM
2,COc1cccc(-c2c(C)n(Cc3c(F)cccc3F)c(=O)n([C@@H](C)CNC3CCCC3)c2=O)c1,950 nM
3,COc1cccc(-c2c(C)n(Cc3c(F)cccc3F)c(=O)n([C@H](C)CNCc3ccccc3C)c2=O)c1,70 nM
4,COc1cccc(-c2c(C)n(Cc3c(F)cccc3F)c(=O)n([C@@H](C)CNCC(C)C)c2=O)c1,1200 nM
5,COc1cccc(-c2c(C)n(Cc3c(F)cccc3F)c(=O)n([C@H](C)CNCC3CC3)c2=O)c1,780 nM
6,COc1cccc(-c2c(C)n(Cc3c(F)cccc3F)c(=O)n(C[C@H](C)N(C)CCc3ccccn3)c2=O)c1,5 nM
7,COc1cccc(-c2c(C)n(Cc3c(F)cccc3F)c(=O)n(C3CCN(CCc4ccccn4)C3)c2=O)c1 (stereo unspecified),8300 nM
8,COc1cccc(-c2c(C)n(Cc3c(F)cccc3F)c(=O)n(C3CCNC3)c2=O)c1 (stereo unspecified),15000 nM
9,COc1cccc(-c2c(C)n(Cc3c(F)cccc3F)c(=O)n([C@H](C)CN(C)Cc3ccccc3)c2=O)c1,150 nM
10,COc1cccc(-c2c(C)n(Cc3c(F)cccc3F)c(=O)n(C3CCN(Cc4ccccc4)C3)c2=O)c1 (stereo unspecified),280 nM
11,COc1cccc(-c2c(C)n(Cc3c(F)cccc3F)c(=O)n([C@H](C)CNCC(C)C)c2=O)c1,190 nM
12,COc1cccc(-c2c(C)n(Cc3c(F)cccc3F)c(=O)n([C@H](C)CN(C)CC3CC3)c2=O)c1,590 nM
13,COc1cccc(-c2c(C)n(Cc3c(F)cccc3F)c(=O)n([C@H](C)CN(C)CCc3ccccn3)c2=O)c1,20 nM
14,COc1cccc(-c2c(C)n(Cc3c(F)cccc3F)c(=O)n([C@@H](C)CNCc3ccccc3C)c2=O)c1,400 nM
15,COc1cccc(-c2c(C)n(Cc3c(F)cccc3F)c(=O)n([C@@H](C)CN(C)Cc3ccccc3)c2=O)c1,2000 nM
16,COc1cccc(-c2c(C)n(Cc3c(F)cccc3F)c(=O)n([C@@H](C)CN(C)CC3CC3)c2=O)c1,7000 nM
17,COc1cccc(-c2c(C)n(Cc3c(F)cccc3F)c(=O)n([C@H](C)CNC3CCCC3)c2=O)c1,430 nM
18,COc1cccc(-c2c(C)n(Cc3c(F)cccc3F)c(=O)n([C@@H](C)CNCC3CC3)c2=O)c1,1600 nM

# More lines, now with the values ahead:
row,Ki,SMILES
1,720 nM,COc1ccc(CNC[C@@H](C)n2c(=O)c(-c3cccc(OC)c3)c(C)n(Cc3c(F)cccc3F)c2=O)cc1
2,250 nM,COc1cccc(-c2c(C)n(Cc3c(F)cccc3F)c(=O)n([C@H](C)CNCc3ccc(F)cc3)c2=O)c1
3,90 nM,COc1cccc(-c2c(C)n(Cc3c(F)cccc3F)c(=O)n([C@H](C)CNCc3ccccc3F)c2=O)c1
4,550 nM,COc1cccc(-c2c(C)n(Cc3c(F)cccc3F)c(=O)n([C@@H](C)CNCc3ccccc3F)c2=O)c1
5,20 nM,COc1cccc(CNC[C@@H](C)n2c(=O)c(-c3cccc(OC)c3)c(C)n(Cc3c(F)cccc3F)c2=O)c1
6,85 nM,COc1cccc(-c2c(C)n(Cc3c(F)cccc3F)c(=O)n([C@H](C)CNCc3cccc(F)c3)c2=O)c1
7,370 nM,COc1cccc(-c2c(C)n(Cc3c(F)cccc3F)c(=O)n([C@@H](C)CNCc3ccccc3)c2=O)c1
8,75 nM,COc1cccc(-c2c(C)n(Cc3c(F)cccc3F)c(=O)n([C@H](C)CNCc3ccccc3)c2=O)c1
